Measurements from PubChem BioAssay (NCI).
Several values for one entry are separate records, joined by “and”; a condition that tells them apart may be missing. Identical values can stand only once.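 Test compounds were applied to cells in 96-well plates for 48 hours at 5 doses. At the GI50, growth is halved. At the TGI there is no net growth.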

Key:
Assay in all cases: DTP human tumour cell line panel, 48 h
MDA-MB-231 breast = system: MDA-MB-231 breast
ACHN renal = system: ACHN renal
UO-31 renal = system: UO-31 renal
BT-549 breast = system: BT-549 breast
SF-268 CNS = system: SF-268 CNS
SNB-75 CNS = system: SNB-75 CNS
K-562 leukemia = system: K-562 leukemia
NCI-H460 lung = system: NCI-H460 lung
PC-3 prostate = system: PC-3 prostate
IGROV1 ovarian = system: IGROV1 ovarian
OVCAR-5 ovarian = system: OVCAR-5 ovarian
NCI-H23 lung = system: NCI-H23 lung
SF-295 CNS = system: SF-295 CNS
COLO 205 colon = system: COLO 205 colon
UACC-257 melanoma = system: UACC-257 melanoma
HCT-116 colon = system: HCT-116 colon
CAKI-1 renal = system: CAKI-1 renal
MDA-MB-435 = system: MDA-MB-435
MOLT-4 leukemia = system: MOLT-4 leukemia
SN12C renal = system: SN12C renal
SNB-19 CNS = system: SNB-19 CNS
NCI-H522 lung = system: NCI-H522 lung
HT29 colon = system: HT29 colon
SF-539 CNS = system: SF-539 CNS
TK-10 renal = system: TK-10 renal
SK-MEL-5 melanoma = system: SK-MEL-5 melanoma
CCRF-CEM leukemia = system: CCRF-CEM leukemia
M14 melanoma = system: M14 melanoma
SR leukemia = system: SR leukemia
MDA-MB-468 breast = system: MDA-MB-468 breast
HCT-15 colon = system: HCT-15 colon
SK-OV-3 ovarian = system: SK-OV-3 ovarian
RPMI-8226 leukemia = system: RPMI-8226 leukemia
LOX IMVI melanoma = system: LOX IMVI melanoma
HOP-92 NSCLC = system: HOP-92 NSCLC
SK-MEL-2 melanoma = system: SK-MEL-2 melanoma
MCF7 breast = system: MCF7 breast
OVCAR-3 ovarian = system: OVCAR-3 ovarian
U251 CNS = system: U251 CNS
EKVX NSCLC = system: EKVX NSCLC
DU-145 prostate = system: DU-145 prostate
786-0 renal = system: 786-0 renal
UACC-62 melanoma = system: UACC-62 melanoma
A498 renal = system: A498 renal
SK-MEL-28 melanoma = system: SK-MEL-28 melanoma
HL-60(TB) leukemia = system: HL-60(TB) leukemia
T-47D breast = system: T-47D breast
OVCAR-4 ovarian = system: OVCAR-4 ovarian
MALME-3M melanoma = system: MALME-3M melanoma
NCI-H226 lung = system: NCI-H226 lung
KM12 colon = system: KM12 colon
OVCAR-8 ovarian = system: OVCAR-8 ovarian
HOP-62 NSCLC = system: HOP-62 NSCLC
A549 NSCLC = system: A549 NSCLC
HCC-2998 colon = system: HCC-2998 colon
HS 578T breast = system: HS 578T breast
SW-620 colon = system: SW-620 colon
NCI/ADR-RES ovarian = system: NCI/ADR-RES ovarian

For `COc1ccc(C(=O)/C=C/c2ccc(OCc3ccccc3)c(OC)c2)cc1OC`, the GI50 (MDA-MB-231 breast) was 8.48 µM, the TGI (MDA-MB-231 breast) was 78.9 µM and the GI50 (ACHN renal) was 15.3 µM. It also gave a TGI (ACHN renal) greater than 100 µM, a GI50 (UO-31 renal) of 5.38 µM and a TGI (UO-31 renal) greater than 100 µM. For the same compound, the GI50 (BT-549 breast) was 5.08 µM, the TGI (BT-549 breast) was 55.7 µM and the GI50 (SF-268 CNS) was 10.8 µM. The TGI (SF-268 CNS) was greater than 100 µM, the GI50 (SNB-75 CNS) was 18.7 µM and the TGI (SNB-75 CNS) was 77.2 µM. The GI50 (K-562 leukemia) was 3.06 µM, the TGI (K-562 leukemia) was greater than 100 µM and the GI50 (NCI-H460 lung) was 4.6 µM. For the same compound, the TGI (NCI-H460 lung) was 38.3 µM, the GI50 (PC-3 prostate) was 7.05 µM and the TGI (PC-3 prostate) was greater than 100 µM. For the same compound, the GI50 (IGROV1 ovarian) was 6.33 µM, the TGI (IGROV1 ovarian) was greater than 100 µM and the GI50 (OVCAR-5 ovarian) was 12.5 µM. For the same compound, the TGI (OVCAR-5 ovarian) was 92.2 µM, the GI50 (NCI-H23 lung) was 6.95 µM and the TGI (NCI-H23 lung) was 43 µM. It also gave a GI50 (SF-295 CNS) of 9.59 µM, a TGI (SF-295 CNS) greater than 100 µM and a GI50 (COLO 205 colon) of 15.7 µM. It also gave a TGI (COLO 205 colon) greater than 100 µM, a GI50 (UACC-257 melanoma) of 29.3 µM and a TGI (UACC-257 melanoma) greater than 100 µM. For the same compound, the GI50 (HCT-116 colon) was 3.56 µM, the TGI (HCT-116 colon) was greater than 100 µM and the GI50 (CAKI-1 renal) was 16.7 µM. The TGI (CAKI-1 renal) was greater than 100 µM, the GI50 (MDA-MB-435) was 12 µM and the TGI (MDA-MB-435) was 59.6 µM. It also gave a GI50 (MOLT-4 leukemia) of 4.47 µM, a TGI (MOLT-4 leukemia) greater than 100 µM and a GI50 (SN12C renal) of 4.48 µM. It also gave a TGI (SN12C renal) of 45.7 µM, a GI50 (SNB-19 CNS) of 8.3 µM and a TGI (SNB-19 CNS) greater than 100 µM. The GI50 (NCI-H522 lung) was 4.86 µM, the TGI (NCI-H522 lung) was 36.3 µM and the GI50 (HT29 colon) was 3.52 µM. It also gave a TGI (HT29 colon) greater than 100 µM, a GI50 (SF-539 CNS) of 3.38 µM and a TGI (SF-539 CNS) of 13.1 µM. It also gave a GI50 (TK-10 renal) of 21.4 µM, a TGI (TK-10 renal) greater than 100 µM and a GI50 (SK-MEL-5 melanoma) of 17.4 µM. For the same compound, the TGI (SK-MEL-5 melanoma) was 43.1 µM, the GI50 (CCRF-CEM leukemia) was 4.01 µM and the TGI (CCRF-CEM leukemia) was greater than 100 µM. For the same compound, the GI50 (M14 melanoma) was 27.4 µM, the TGI (M14 melanoma) was greater than 100 µM and the GI50 (SR leukemia) was 2.8 µM. The TGI (SR leukemia) was greater than 100 µM, the GI50 (MDA-MB-468 breast) was 2.15 µM and 3.99 µM and the TGI (MDA-MB-468 breast) was 7.35 µM and 32.2 µM. For the same compound, the GI50 (HCT-15 colon) was 3.45 µM, the TGI (HCT-15 colon) was 47.6 µM and the GI50 (SK-OV-3 ovarian) was 40.5 µM. It also gave a TGI (SK-OV-3 ovarian) greater than 100 µM, a GI50 (RPMI-8226 leukemia) of 3.02 µM and a TGI (RPMI-8226 leukemia) greater than 100 µM. It also gave a GI50 (LOX IMVI melanoma) of 4.11 µM, a TGI (LOX IMVI melanoma) of 37.1 µM and a GI50 (HOP-92 NSCLC) of 6.03 µM. For the same compound, the TGI (HOP-92 NSCLC) was greater than 100 µM, the GI50 (SK-MEL-2 melanoma) was 17.4 µM and the TGI (SK-MEL-2 melanoma) was 60.5 µM. It also gave a GI50 (MCF7 breast) of 3.44 µM, a TGI (MCF7 breast) greater than 100 µM and a GI50 (OVCAR-3 ovarian) of 4.48 µM. The TGI (OVCAR-3 ovarian) was greater than 100 µM, the GI50 (U251 CNS) was 3.16 µM and the TGI (U251 CNS) was greater than 100 µM. It also gave a GI50 (EKVX NSCLC) of 11.4 µM, a TGI (EKVX NSCLC) greater than 100 µM and a GI50 (DU-145 prostate) of 5.78 µM. It also gave a TGI (DU-145 prostate) greater than 100 µM, a GI50 (786-0 renal) of 25.4 µM and a TGI (786-0 renal) greater than 100 µM. For the same compound, the GI50 (UACC-62 melanoma) was 6.42 µM, the TGI (UACC-62 melanoma) was greater than 100 µM and the GI50 (A498 renal) was 20.3 µM. It also gave a TGI (A498 renal) of 94.2 µM, a GI50 (SK-MEL-28 melanoma) of 34 µM and a TGI (SK-MEL-28 melanoma) greater than 100 µM. For the same compound, the GI50 (HL-60(TB) leukemia) was 13.4 µM, the TGI (HL-60(TB) leukemia) was 61.2 µM and the GI50 (T-47D breast) was 5.46 µM. The TGI (T-47D breast) was greater than 100 µM, the GI50 (OVCAR-4 ovarian) was 4.28 µM and the TGI (OVCAR-4 ovarian) was greater than 100 µM. The GI50 (MALME-3M melanoma) was 41.1 µM, the TGI (MALME-3M melanoma) was greater than 100 µM and the GI50 (NCI-H226 lung) was 5.34 µM. For the same compound, the TGI (NCI-H226 lung) was 87.3 µM, the GI50 (KM12 colon) was 5.19 µM and the TGI (KM12 colon) was greater than 100 µM. For the same compound, the GI50 (OVCAR-8 ovarian) was 3.6 µM, the TGI (OVCAR-8 ovarian) was greater than 100 µM and the GI50 (HOP-62 NSCLC) was 4.95 µM. For the same compound, the TGI (HOP-62 NSCLC) was greater than 100 µM, the GI50 (A549 NSCLC) was 10.4 µM and the TGI (A549 NSCLC) was greater than 100 µM. For the same compound, the GI50 (HCC-2998 colon) was 7.06 µM, the TGI (HCC-2998 colon) was 30 µM and the GI50 (HS 578T breast) was 18.4 µM. It also gave a TGI (HS 578T breast) greater than 100 µM, a GI50 (SW-620 colon) of 3.64 µM and a TGI (SW-620 colon) greater than 100 µM. For the same compound, the GI50 (NCI/ADR-RES ovarian) was 5.08 µM and the TGI (NCI/ADR-RES ovarian) was 39.3 µM.
